Data as given in publication PMC9412875, “^64Cu-DOTHA2-PSMA, a Novel PSMA PET Radiotracer for Prostate Cancer with a Long Imaging Time Window” (Pharmaceuticals, 2022).

Tests used:
LNCaP cells [1] = experiment: Cellular uptake and internalization assays; assay type: cell-based, human; conditions: for cellular uptake: n = 9
Method: (§1) Here, 12-well polylysine-coated Cellbind plates were seeded with 150 × 10^3 LNCaP cells with 1.75 mL of cell media. At 70–100% confluence (3 days of growth), the cell medium was changed and 37 kBq of ^64Cu-DOTHA2-PSMA in 1 mL of cell medium was added to each well of group 1 and 160 kBq to each of group 2.
Uptake and internalization assay cells were incubated for 15, 30, 45, 60 min, 2 h, 3 h, and 4 h in group 1 or 4 h, 8 h, 12 h, 24 h, 36 h, and 48 h in group 2 (3 wells per time point in all groups). Repetition of the 4 h time point was used to ensure reproducibility. After incubation, the medium was removed, and cells were washed with 1 mL of cold PBS. For the uptake assays, cells were directly treated with 1 mL of trypsin to be collected and their activity was assayed (HIDEX AMG Gamma Counter 425-601). For internalization assays, cells were incubated with 1 mL of acidic glycine (50 mM, pH = 2,8) for 5 min to remove membrane-bound ^64Cu-DOTHA2-PSMA, washed with 3 mL of cold PBS, and collected using 1 mL of trypsin to be measured in the gamma-counter. Uptake and internalization results were expressed as the percentage of activity injected in the well (IA) in functions of time, normalized to 10^6 cells.
(§2) All the assays were performed at least 3 times, each with different ^64Cu-DOTHA2-PSMA production and cell passage. Cells were counted in 3 wells for each protocol (uptake, internalization, and efflux) on day 1 and day 3 of each experiment and an average for cells numbers at day 2.

LNCaP cells [2] = experiment: Cellular efflux assay; assay type: cell-based, human; conditions: 1h incubation, efflux time 3 h
LNCaP cells [3] = experiment: Cellular efflux assay; assay type: cell-based, human
Method: as §1
For efflux assays, after adding ^64Cu-DOTHA2-PSMA, cells were incubated for 60 min for the time points 15 min to 4 h (group 1) and incubated for 4 h for the time points 4 h to 48 h (group 2). After incubation, the medium was removed, cells were washed with 1 mL of cold PBS, 1 mL of cell media was added and, similarly to uptake and internalization, cells were again incubated in nonradioactive media for 0, 15, 30, 45, 60 min, 2 h, 4 h (group 1) and 4 h, 8 h, 24 h, 32 h or 48 h (group 2) (3 wells per time point). After respective incubation times per well, the medium was removed, and cells were washed with 1 mL of cold PBS, then removed from the well with 1 mL of trypsin to measure the residual radioactivity by gamma counter. The results of residual activity were expressed as percentage of the 1 h (Group 1) or 4 h (Group 2) uptake activity (0 min of efflux time-point) as a function of time for 10^6 cells.
as §2

LNCaP tumor = experiment: Tumor-bearing mice biodistribution after PET; assay type: in vivo, NRG mice; conditions: 24 h p.i.
Method: Balb/c mice (n = 30) were injected with a bolus of ^64Cu-DOTHA2-PSMA by the tail vein (in 0.3 mL of saline: 3 MBq for 1 h, 2 h, and 4 h p.i., 7.5 MBq for 24 h p.i. and 21 MBq for 48 h p.i.). Injected activity had to be increased for later time points to ensure reliable detection and reliability in organs with a low uptake, e.g., the brain. At all timepoints, blood was collected using a heparin-coated syringe by femoral vein puncture and mice were then euthanized and dissected. Harvested tissues were rinsed, blotted dry, and then weighted and counted in gamma counter. The results are reported as the %IA per gram of tissue. The biodistribution results were compared with the ^68Ga-PSMA-617 results obtained by our team at 1 h and 2 h p.i.
PET imaging of NRG mice and supplemental tumor-bearing mice were biodistributed 24 h p.i. as described for balb/c mice.

[4] = Blocked (n=4), co-injection of natCu-DOTHA2-PSMA

For `CN([O-])C(=O)CN1CCN(CC(=O)NCC2CCC(C(=O)NC(Cc3ccc4ccccc4c3)C(=O)NCCCCC(NC(=O)NC(CCC(=O)O)C(=O)O)C(=O)O)CC2)CCN(CC(=O)N(C)[O-])CCN(CC(=O)N(C)O)CC1.[64Cu+2]` (stereo not drawn) [^64Cu-DOTHA2-PSMA], which cellular uptake (LNCaP cells [1]; 30 min) is on record?
The cellular uptake was 22.0 ± 8.8 % IA/10^6 cells.

And the internalization (LNCaP cells [1]; 2 h)?
Its internalization is 12.2 ± 6.7 % IA/10^6 cells.

And the internalization (LNCaP cells [1]; 48 h)?
Its internalization is 34.1 ± 4.9 % IA/10^6 cells.

And the cellular uptake (LNCaP cells [1]; 48 h)?
The cellular uptake was 34.5 ± 13.6 % IA/10^6 cells.

And the “Retained activity normalized to time 0” value (LNCaP cells [2])?
The value was 76.53%.

What about the “Retained activity normalized to time 0” value (LNCaP cells [3]; 1h incubation, efflux time 0.25 h) of the same compound?
Its value is 100.93%.

And the “Retained activity normalized to time 0” value (LNCaP cells [3]; 1h incubation, efflux time 0.50 h)?
Its value is 105.51%.

And the “Retained activity normalized to time 0” value (LNCaP cells [3]; 1h incubation, efflux time 0.75 h)?
Its value is 94.38%.

What about the “Retained activity normalized to time 0” value (LNCaP cells [3]; 1h incubation, efflux time 1 h) of the same compound?
Its value is 77.52%.

What about the “Retained activity normalized to time 0” value (LNCaP cells [3]; 1h incubation, efflux time 2 h) of the same compound?
Its value is 80.95%.

And the “Retained activity normalized to time 0” value (LNCaP cells [3]; 1h incubation, efflux time 4 h)?
Its value is 64.04%.

And the “Retained activity normalized to time 0” value (LNCaP cells [3]; 4h incubation, efflux time 4 h)?
Its value is 66.23%.

And the “Retained activity normalized to time 0” value (LNCaP cells [3]; 4h incubation, efflux time 8 h)?
The value was 51.88%.

What about the “Retained activity normalized to time 0” value (LNCaP cells [3]; 4h incubation, efflux time 24 h) of the same compound?
Its value is 35.10%.

What about the “Retained activity normalized to time 0” value (LNCaP cells [3]; 4h incubation, efflux time 32 h) of the same compound?
Its value is 34.27%.

And the “Retained activity normalized to time 0” value (LNCaP cells [3]; 4h incubation, efflux time 48 h)?
The value was 48.61%.

What about the Adrenals uptake (LNCaP tumor; [4]) of the same compound?
The Adrenals uptake was 9.02 %IA/g.

And the Blood uptake (LNCaP tumor; [4])?
Its Blood uptake is 1.91 %IA/g.

And the Bone uptake (LNCaP tumor; [4])?
The Bone uptake was 0.91 %IA/g.

And the Brain uptake (LNCaP tumor; [4])?
The Brain uptake was 0.38 %IA/g.

What about the Fat uptake (LNCaP tumor; [4]) of the same compound?
The Fat uptake was 0.26 %IA/g.

And the Heart uptake (LNCaP tumor; [4])?
The Heart uptake was 3.00 %IA/g.

And the Intestin uptake (LNCaP tumor; [4])?
Its Intestin uptake is 8.53 %IA/g.

What about the Kidneys uptake (LNCaP tumor; [4]) of the same compound?
Its Kidneys uptake is 6.86 %IA/g.

And the LNCaP tumor uptake (LNCaP tumor; [4])?
Its LNCaP tumor uptake is 7.44 %IA/g.

What about the Lungs uptake (LNCaP tumor; [4]) of the same compound?
Its Lungs uptake is 5.99 %IA/g.

What about the Muscles uptake (LNCaP tumor; [4]) of the same compound?
The Muscles uptake was 0.47 %IA/g.

And the Pancreas uptake (LNCaP tumor; [4])?
The Pancreas uptake was 2.09 %IA/g.

What about the Plasma uptake (LNCaP tumor; [4]) of the same compound?
Its Plasma uptake is 2.54 %IA/g.

What about the Salivary gl. uptake (LNCaP tumor; [4]) of the same compound?
Its Salivary gl. uptake is 1.84 %IA/g.

And the Seminal gl. uptake (LNCaP tumor; [4])?
The Seminal gl. uptake was 0.59 %IA/g.

What about the Skin uptake (LNCaP tumor; [4]) of the same compound?
The Skin uptake was 0.50 %IA/g.

And the Spleen uptake (LNCaP tumor; [4])?
The Spleen uptake was 6.99 %IA/g.

What about the Stomach uptake (LNCaP tumor; [4]) of the same compound?
The Stomach uptake was 5.55 %IA/g.

And the Tail uptake (LNCaP tumor; [4])?
The Tail uptake was 1.36 %IA/g.

What about the Testis uptake (LNCaP tumor; [4]) of the same compound?
The Testis uptake was 1.03 %IA/g.

What about the Thyroid uptake (LNCaP tumor; [4]) of the same compound?
Its Thyroid uptake is 1.33 %IA/g.

And the liver uptake (LNCaP tumor; [4])?
Its liver uptake is 15.15 %IA/g.

What about the Adrenals uptake (LNCaP tumor; Non-blocked (n=11)) of the same compound?
Its Adrenals uptake is 4.70 %IA/g.

What about the Blood uptake (LNCaP tumor; Non-blocked (n=11)) of the same compound?
Its Blood uptake is 3.46 %IA/g.

What about the Bone uptake (LNCaP tumor; Non-blocked (n=11)) of the same compound?
Its Bone uptake is 2.38 %IA/g.

What about the Brain uptake (LNCaP tumor; Non-blocked (n=11)) of the same compound?
The Brain uptake was 0.75 %IA/g.

What about the Fat uptake (LNCaP tumor; Non-blocked (n=11)) of the same compound?
Its Fat uptake is 0.63 %IA/g.

And the Heart uptake (LNCaP tumor; Non-blocked (n=11))?
The Heart uptake was 5.20 %IA/g.

And the Intestin uptake (LNCaP tumor; Non-blocked (n=11))?
Its Intestin uptake is 15.69 %IA/g.

And the Kidneys uptake (LNCaP tumor; Non-blocked (n=11))?
The Kidneys uptake was 13.24 %IA/g.

And the LNCaP tumor uptake (LNCaP tumor; Non-blocked (n=11))?
The LNCaP tumor uptake was 17.33 %IA/g.

What about the Lungs uptake (LNCaP tumor; Non-blocked (n=11)) of the same compound?
The Lungs uptake was 14.30 %IA/g.

And the Muscles uptake (LNCaP tumor; Non-blocked (n=11))?
Its Muscles uptake is 1.10 %IA/g.

What about the Pancreas uptake (LNCaP tumor; Non-blocked (n=11)) of the same compound?
Its Pancreas uptake is 2.80 %IA/g.

What about the Plasma uptake (LNCaP tumor; Non-blocked (n=11)) of the same compound?
The Plasma uptake was 4.52 %IA/g.

And the Salivary gl. uptake (LNCaP tumor; Non-blocked (n=11))?
Its Salivary gl. uptake is 4.18 %IA/g.

What about the Seminal gl. uptake (LNCaP tumor; Non-blocked (n=11)) of the same compound?
The Seminal gl. uptake was 1.13 %IA/g.

What about the Skin uptake (LNCaP tumor; Non-blocked (n=11)) of the same compound?
The Skin uptake was 1.07 %IA/g.

What about the Spleen uptake (LNCaP tumor; Non-blocked (n=11)) of the same compound?
Its Spleen uptake is 10.10 %IA/g.

And the Stomach uptake (LNCaP tumor; Non-blocked (n=11))?
The Stomach uptake was 9.17 %IA/g.

And the Tail uptake (LNCaP tumor; Non-blocked (n=11))?
The Tail uptake was 2.37 %IA/g.

What about the Testis uptake (LNCaP tumor; Non-blocked (n=11)) of the same compound?
The Testis uptake was 1.96 %IA/g.

And the Thyroid uptake (LNCaP tumor; Non-blocked (n=11))?
Its Thyroid uptake is 2.57 %IA/g.

And the liver uptake (LNCaP tumor; Non-blocked (n=11))?
The liver uptake was 28.54 %IA/g.
